Data set [1] has as its system TA97. In words: Ames test, Petri dish mixing method, TA97. Type of data set: cell-based. The note with it: TA97 −S9, positive control, dose not given. The protocol: (§1) Test bacteria (TA97, TA98, TA100, TA102) were supplied by the Bureau of Food Inspection, Department of Health in Beijing. […] Using the Petri dish mixing method, two independent tests were carried out.

Data set [2] concerns TA98. Kind of data set: Ames test, Petri dish mixing method, TA98. Type of data set: cell-based. Particulars: TA98 −S9, positive control, dose not given. The protocol: as §1
Data set [3] deals with NIH mice. In words: Mouse sperm deformation test. Particulars: 0.04 g/kg, abdominal injections. Type of data set: in vivo. From the text: 3. Sperm Deformation Test
Twenty five (25) NIH mice with body weights of 18-22 g, randomly divided into 5 groups and continuously force fed for 5 days (the Endoxan positive group received abdominal injections), were used in this test. Thirty five (35) days later, the animals were sacrificed and both testicles were taken out for the standard biopsy preparation and staining. Five thousand (5000) whole sperm from each group were examined under an oil immersion lens and the sperm deformation percentage was calculated.

For data set [4], the system named is NIH mice. Particulars: for No. of micronuclei: 10000 cells.
Procedure: Test material: The GLSs were brown powders. After going through a 100 mesh sieve, 120 g of the samples were mixed with 300 mL distilled water (to give a concentration of 40 g/dL) and stirred for 15 min in a stirrer at 7000 rpm. They were then bottled, underwent disinfection and antiseptic treatments, and 1 mL of a pasty liquid was obtained, which was about 0.4 g of the samples. Direct gavage was carried out two times per day.
Mouse Bone Marrow Micronucleus Test:
Seventy (70) NIH mice with body weights of 20-23 g were used in this test. The mice were divided into 7 groups and testing was carried out according to the methods of the Toxicological Evaluation Procedures for Food Safety. Gavage was carried out twice, and 6 hrs after the second force feeding, the mice were sacrificed, and both of the femurs were taken out for the preparation of a biopsy, staining and examination under a microscope.
The test system of data set [5] is TA100. In words: Ames test, Petri dish mixing method, TA100. Type of data set: cell-based. The note with it: TA100 −S9, positive control, dose not given. Here is the method: as §1
The subject of data set [6] is SLE mice. In words: T-lymphocyte populations in SLE mice under different treatments. Type of data set: in vivo. Here is the method:
Spleens, lymph nodes, and thymus glands were collected under sterile conditions from the DBA/2 or BALB/C mice. Lymphocytes were then isolated and washed with Hanks solution 3 times. Cells were stained with 0.5% trypan blue and examined for viability. The lymphocytes were then adjusted to the desired concentrations.
Kidney tissues were sampled and undergone morphologic analyses under light scope.
Statistical analyses and t test, were carried out using SPAAS 10.0 computer software.

Where [7] appears, read: blood at 168 hours after the first dosing, daily oral, GLSs 0.8 g/kg/day, prednisolone solution 50 mL/kg/day.

Consider four compounds from patent US6893641B2, “Ganoderma lucidum spores for treatment of autoimmune diseases” (priority 1999, dated 2005).

“Also recorded” adds a separate entry of the source. Read-outs that look alike come from different tables or passages of the source. Marks after values point to notes of the source that are not given here.

As for `CCN(CC)CCCC(C)Nc1c2ccc(Cl)cc2nc2ccc(OC)cc12` (centres unmarked) [Atabrine], the “colonies due to reverse mutation” value is listed as more than 1500 in data set [1] and more than 1433 in data set [2].
Turning to `O=P1(N(CCCl)CCCl)NCCCO1` (centres unmarked) [Endoxan], the “No of deformed sperm (count)” value in data set [3] (5000 sperm) is reported as 98. Also, the Percentage deformation in data set [3] (p < 0.01 vs other groups) was 72.80**. In addition, the No. of micronuclei in data set [4] (listed as printed '(0.06)' g/kg under Endoxan) was 249; in data set [4] (listed as printed '^ Endoxan') it was 12. Moreover, the Percentage of micronuclei in data set [4] (listed as printed '(0.06)' g/kg under Endoxan, p < 0.001 vs other groups) is reported as 24.9** 0/00; in data set [4] (listed as printed '^ Endoxan') it was 1.2 0/00.
Consider `[N-]=[N+]=[N-]` [Sodium azide], for which the “colonies due to reverse mutation” value in data set [5] is on record as more than 1500.
As for `C[C@]12C=CC(=O)C=C1CC[C@@H]1[C@@H]2[C@@H](O)C[C@@]2(C)[C@H]1CC[C@]2(O)C(=O)CO` [prednisolone], the “T %, Th %, Ts % and Th/Ts ratio compared with control groups” value in data set [6] (168 hours after the first dosing) is on record as “much better than those in the SLE control group; also recorded: improved the T cell counts in similar degree as those of GLSs”. Further, in data set [6] (setting [7]), the “T(%)” value was 51.30 ± 4.23%, the “Th (%)” value turned out to be 31.44 ± 3.21%, the Th/Ts stood at 1.12 ± 0.31 and the “Ts (%)” value came to 28.43 ± 3.12%.
